This note sets out measurements from paper PMC12549899 (Nature Communications, 2025).

This assay concerns the target T1, DrOTOP1 A274W (Danio rerio, UniProt Q7ZWK8, A274W).
T1 construct: A previously generated codon-optimized full-length DrOTOP1[8]; (UniProt: Q7ZWK8) construct; expressed in transfected cells; host or cells: HEK-293 (CRL-1573, ATCC)
T1 sequence (Q7ZWK8 1-586 A274W): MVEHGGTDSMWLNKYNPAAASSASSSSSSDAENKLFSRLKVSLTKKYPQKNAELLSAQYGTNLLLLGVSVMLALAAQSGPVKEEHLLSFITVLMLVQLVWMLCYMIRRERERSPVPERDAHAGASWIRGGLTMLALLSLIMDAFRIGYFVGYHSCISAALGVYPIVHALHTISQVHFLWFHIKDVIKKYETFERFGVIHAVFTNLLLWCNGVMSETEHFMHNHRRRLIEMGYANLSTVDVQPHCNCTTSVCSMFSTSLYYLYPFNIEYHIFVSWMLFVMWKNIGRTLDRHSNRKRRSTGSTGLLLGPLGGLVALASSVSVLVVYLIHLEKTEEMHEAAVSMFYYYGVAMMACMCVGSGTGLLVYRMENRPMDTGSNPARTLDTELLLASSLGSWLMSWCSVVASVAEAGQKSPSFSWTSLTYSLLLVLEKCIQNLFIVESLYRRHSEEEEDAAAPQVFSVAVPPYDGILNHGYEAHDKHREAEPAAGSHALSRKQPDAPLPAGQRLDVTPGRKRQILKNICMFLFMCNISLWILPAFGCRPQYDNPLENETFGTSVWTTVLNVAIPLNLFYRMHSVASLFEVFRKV
Description: Whole-cell patch-clamp, inhibition of acid-evoked currents, DrOTOP1 A274W. The format is cell-based, zebrafish (Danio rerio). An excerpt: We next tested mutations of the central site (L205W, A274W, F277A, E384A L385W, A388W). V201W and S389W, two additional central site mutations, were excluded from the study due to complete loss of channel activity. Mutation of E384 to alanine is expected to disrupt potential hydrogen bonding with C2.2. Of note, E384 is one of the few charged residues in the central pocket and could form a salt bridge with K281, that could also be affected by the mutation. Additionally, in our DrOTOP1_C2.2 structure, we observed that F277 underwent a substantial rearrangement, likely to avoid steric clash and accommodate C2.2 binding. Thus, we introduced the F277A mutation to test if removing this steric clash would enhance C2.2 inhibition.
HEK-293 cells (CRL-1573, ATCC) were cultured in DMEM (Thermofisher 11995073) containing 10% fetal bovine serum (Life Technology 16000044) and Penicillin-Streptomycin (100 I.U./mL) and (100 µg/mL), respectively. Cells were transfected with WT DrOTOP1 or mutant DrOTOP1 channels in 35 mm petri dishes, with ~ 500 ng DNA and 2 μL TransIT-LT1 transfection reagent (Mirus Bio Corporation, Cat # MIR2300) following the manufacturer’s protocol. All constructs were subcloned into a pcDNA3.1 vector that adds an N-terminal fusion tag consisting of an octahistidine tag followed by eGFP, a Gly-Thr-Gly-Thr linker and a 3C protease cleavage site ([…]) followed by WT DrOTOP1, WT mOTOP1, WT hOTOP1, or mutated DrOTOP1. Point mutations were generated via In-Fusion Cloning (Takara) using single-stranded DNA primers generated through IDT and sequence confirmed by Sanger sequencing (GeneWiz).
Whole-cell patch-clamp recording was performed as previously described[6],[22],[25]. Recordings were made with an Axopatch 200B amplifier, digitized with a Digidata 1322a 16-bit data acquisition system, acquired with pClamp 8.2 and analyzed with Clampfit 10 (Molecular Devices). Recordings were sampled at 5 kHz and filtered at 1 kHz. Patch Pipettes with resistance of […] were fabricated from borosilicate glass, and only recordings with a giga-Ohm seal were used in analysis. Membrane potential was held at −80 mV for the duration of recordings. At the beginning of recordings and between, cells were washed with Tyrode’s solution (see below). Once a giga-Ohm seal was reached, cells were lifted and placed in front of microcapillary tubes controlled by a Fast-Step perfusion system (Warner Instruments) so that extracellular solutions could be rapidly exchanged during each experiment.
Standard Tyrode’s solution consisted of 145 mM NaCl, 5 mM KCl, MgCl2, 2 mM CaCl2, 20 mM D-Glucose, and 10 mM HEPES (for pH 7.4). All other extracellular patch-clamp solutions contained 160 mM NMDG-Cl, 2 mM CaCl2, and the following buffers: 10 mM HEPES (for pH 7.4), 10 mM MES (for pH 6.5-5.5), 10 mM CHES for pH 10, and 10 mM HomoPIPES for (pH 5.0). pH adjusted with HCl. When adding compounds to extracellular solutions, the concentration of DMSO in solution was never higher than 0.3%. […]
All data are presented as mean ± SEM unless otherwise noted, and each data point represents an independent replicant. Inhibition of compounds was quantified as ((I2peak-I1)/(I2peak))*100, where I1 is the current immediately before wash-off and I2peak is the maximum recovered current (Supplementary Fig. 2). Hill coefficients were determined by the following equation: Y = Bmax*X^h/(Kd^h + X^h). […]

Values joined by “and” are separate entries in the source; they are usually repeats but may differ in a detail not shown here. Equal values may be shown once.

In the case of `C=C(C)COc1ccccc1NC(=O)c1nc[nH]c1C` [C2.2], the inhibition at 10 µM (10 µM, single cells or mean) was 74.6%. In addition, the Inhibition of currents (10 µM, single cells or mean, mean) is given as 72.36%; the Inhibition of currents (10 µM, single cells or mean, single cells) was 71.3399% and 74.8032% and 68.9769% and 72.0779%.
For the compound `O=C(/C(=N\O)c1ccccc1)c1ccccc1` [C11, benzil monoxime], under “100 µM, single cells”, the Inhibition of currents was 70.9091% and 73.0647% and 75.9259% and 71.7822%; the inhibition at 100 µM came to 76.2%.

In general, inhibition refers to the share of the control response that was lost under treatment. High values mean a strong effect, low ones a weak effect.
